The record followed here is US9206445B2, “Biocatalysts with enhanced inhibitor tolerance” (priority 2013, dated 2015).

For the test, the system named is Z. mobilis 8b. Kind of test: Furfural MIC for growth of Z. mobilis (plate screening levels given as MIC multiples). As to conditions: Zymomonas mobilis, 24 h, read-out: MIC 1× (minimum concentration of inhibitor needed for complete inhibition of growth). It counts as cell-based. On the procedure: Both Z. mobilis 8b and 8b knockout library cultures were revived from glycerol stocks in 20 mL MRMG0.75×0.25 (10 g/L yeast extract, 2 g/L KH2PO4 and 1 g/L MgSO4.7H2O, 7.5 g/L glucose and 2.5 g/L xylose) and also containing […] spectinomycin for 1.5 hours at 35° C., 125 rpm. Cells were centrifuged and resuspended to a final OD600 nm of 0.025 in a 100 mL culture, and grown for an additional 3-4 generations at 35° C. in 125 mL Erlenmeyer flasks with foam enclosures, 125 rpm (about 6 hours). Cells were initially screened on MRMGS (5% w/v glucose) plates containing 0, […], 5, or 7.5 g/L of furfural, equivalent to MICs of 0.75×, 1× or 1.5×. MIC 1× is the minimum (lowest) concentration of inhibitor needed for complete inhibition of growth (RMG2) over a 24-hour period. Approximately 500, 1000 and 2000 colonies were plated in triplicates. Furfural levels were also tested at 0.7, 1.5, 3 or 4 g/L in glucose.

Molecules are shown by their SMILES. In brackets after ≈: the same amount, converted by molar mass.

In the case of `O=Cc1ccco1` [furfural], the MIC was 5000 µg/mL (≈ 52 mM).
